# Measurements: US9120795B2, “Crystalline form of a β-lactamase inhibitor” (Cubist Pharmaceuticals, Inc., priority 2013, dated 2015)
# Key:
# Kpn clinical, KPC-2 = experiment: Synergy MIC (sMIC) assay; assay type: cell-based, Klebsiella pneumoniae; conditions: KPC-2, clinical Kpn; CXA-101 at 4 μg/mL
# Procedure: The synergy MIC (sMIC) assay determines the concentration of the BLI required to potentiate the activity of a fixed concentration of a β-lactam antibiotic against β-lactamase producing bacterial strains. The experimental protocol was performed according to Clinical and Laboratory Standards Institute (CLSI) guidelines with modifications as described below (CLSI guidelines can be derived from the CLSI document M07-A9 published in January 2012: “Methods for Dilution Antimicrobial Susceptibility Tests for Bacteria That Grow Aerobically; Approved Standard-Ninth Edition”). […]
# Plates were incubated for 18-20 hours at 37° C. with aeration (200 rpm). Following incubation, growth was confirmed visually placing plates over a viewing apparatus (stand with a mirror underneath) and then OD600 was measured using a SpectraMax 340PC384 plate reader (Molecular Devices, Sunnyvale, Calif.). Growth was defined as turbidity that could be detected with the naked eye or achieving minimum OD600 of 0.1. sMIC values were defined as the lowest concentration producing no visible turbidity. […]
# KPC-2 β-lactamase = KPC-2 β-lactamase (Klebsiella pneumoniae, UniProt Q9F663); experiment: Inhibition kinetics with nitrocefin as reporter substrate; assay type: biochemical; conditions: 100 μM nitrocefin, 1×PBS pH 7.4, 25° C.
# KPC-2 β-lactamase, sequence (Q9F663 25-293 limits assumed): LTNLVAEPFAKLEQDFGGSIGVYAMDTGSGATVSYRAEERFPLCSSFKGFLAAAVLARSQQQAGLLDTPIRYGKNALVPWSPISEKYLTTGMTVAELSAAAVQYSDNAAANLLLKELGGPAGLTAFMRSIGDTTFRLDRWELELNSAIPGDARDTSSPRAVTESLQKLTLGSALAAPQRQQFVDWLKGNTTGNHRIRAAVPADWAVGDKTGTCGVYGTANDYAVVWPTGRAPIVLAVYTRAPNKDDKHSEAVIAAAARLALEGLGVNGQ
# Procedure: Inhibition or inactivation of KPC-2 by test inhibitors was assessed using 100 μM nitrocefin (NCF) as a reporter substrate. Assays were performed in 1×PBS pH 7.4, 0.1 mg/ml BSA, in 96-well half area plates, 50 μl reaction volume. NCF was dissolved in DMSO and diluted in assay buffer. Test inhibitors were dissolved in water or DMSO and serially diluted in the assay with final concentrations between 2000-0.195 μM.
# The enzyme activity in the presence of varying concentrations of test inhibitor was determined by monitoring the hydrolysis of NCF spectrophotometrically at 486 nm, for 5 minutes, 25° C., using a SpectraMax Plus384 microplate reader with SoftMax Pro software (Molecular Devices). Data analysis was performed using GraphPad Prism (GraphPad Software, Inc.).
# Progress curves were fit to a first-order rate decay equation (Eq. 1) to determine kobserved (kobs).
# kobs vs. inhibitor concentration [I] curves were then fit to Eq.2 to determine the inhibitor dissociation constant (K) and the first order rate constant of enzyme inactivation at infinite inhibitor concentration (kinact). […] Yt=V0*(1−e^(−kobs*t))/kobs Eq. 1 Where Y is the absorbance at time t, V0 is the uninhibited enzyme velocity, kobs is the observed rate constant of the enzyme inactivation. kobs=kinact*[I]/([I]+K(1+S/Km)) Eq. 2 Where S is the NCF concentration, Km is the KPC-2 Km for NCF.
smiles,measurement,setting,value
"O=C1N2C[C@@H](CC[C@H]2c2nnco2)N1OS(=O)(=O)[O-].[Na+] [Hydrate 1, sodium (2S,5R)-2-(1,3,4-oxadiazol-2-yl)-7-oxo-1,6-diazabicyclo[3.2.1]octan-6-yl sulfate]",sMIC,"Kpn clinical, KPC-2",C (C = 4-8 μg/mL)
same,Kinact/K,KPC-2 β-lactamase,134000 to 163000 M⁻¹ s⁻¹
